Results published in ChEMBL document CHEMBL1149531, “Inhibitory effect of 2-arylbenzofurans from Erythrina addisoniae on protein tyrosine phosphatase-1B” (Bioorg Med Chem Lett, 2007).

What follows are compounds tested against T1, Tyrosine-protein phosphatase non-receptor type 1 (Homo sapiens, UniProt P18031).
T1 sequence (P18031 whole entry): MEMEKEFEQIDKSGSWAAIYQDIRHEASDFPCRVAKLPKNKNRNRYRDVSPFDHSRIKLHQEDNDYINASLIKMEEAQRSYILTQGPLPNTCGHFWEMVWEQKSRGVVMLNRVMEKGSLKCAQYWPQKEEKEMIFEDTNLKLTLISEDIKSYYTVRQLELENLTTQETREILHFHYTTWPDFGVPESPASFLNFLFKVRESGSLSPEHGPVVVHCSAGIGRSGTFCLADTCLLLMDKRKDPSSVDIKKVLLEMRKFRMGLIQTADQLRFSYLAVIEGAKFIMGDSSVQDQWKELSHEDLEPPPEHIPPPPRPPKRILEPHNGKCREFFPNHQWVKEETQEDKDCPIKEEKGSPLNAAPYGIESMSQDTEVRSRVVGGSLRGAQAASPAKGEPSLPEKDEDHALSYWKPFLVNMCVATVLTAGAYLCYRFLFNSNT

IC50 [µM]	SMILES
62.7	CC1(C)C=Cc2c(O)ccc(-c3cc4ccc(O)cc4o3)c2O1
64.9	CC1(C)C=Cc2c(ccc(-c3cc4ccc(O)cc4o3)c2O)O1
74.1	COc1ccc2cc(-c3ccc(O)cc3OC)oc2c1
13.6	CC(C)=CCc1c(O)ccc(-c2cc3ccc(O)cc3o2)c1O [2'-O-DEMETHYLBIDWILLOL B]
17.5	COc1cc(O)c(CC=C(C)C)cc1-c1cc2ccc(O)cc2o1 [ADDISOFURAN A]
15.7	COc1cc(O)ccc1-c1cc2cc(CC=C(C)C)c(O)cc2o1 [ADDISOFURAN B]
